Assay results from ChEMBL document CHEMBL1201861, “Genomics of Drug Sensitity in Cancer screening data, Wellcome Trust Sanger Institute”.

How the values were obtained:
Assay in all cases: cells
HuCCT-1 = assay type: functional, cell-based, HuCCT1; conditions: Homo sapiens;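 further: growth inhibition of HuCCT-1 cells, read out by a cell viability assay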
Description: SANGER: Inhibition of human HuCCT1 cell growth in a cell viability assay.

ARH-77 = assay type: functional, cell-based, Homo sapiens; conditions: Homo sapiens, ARH-77;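 further: growth inhibition of ARH-77 cells, read out by a cell viability assay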
Description: SANGER: Inhibition of human ARH-77 cell growth in a cell viability assay.

LU-165 = assay type: functional, cell-based, Homo sapiens; conditions: Homo sapiens, LU-165
Description: SANGER: Inhibition of human LU-165 cell growth in a cell viability assay.

A-375 = assay type: functional, cell-based; conditions: Homo sapiens;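 further: growth inhibition of A375 cells, read out with a cell viability assay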
Description: SANGER: Inhibition of human A375 cell growth in a cell viability assay.

PC-3 = assay type: functional, cell-based; conditions: Homo sapiens;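 further: cell viability assay measuring growth inhibition of PC-3 cells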
Description: SANGER: Inhibition of human PC-3 cell growth in a cell viability assay.

MG-63 = assay type: functional, cell-based; conditions: Homo sapiens;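 further: growth inhibition of human MG-63 cells, read out with a cell viability assay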
Description: SANGER: Inhibition of human MG-63 cell growth in a cell viability assay.

HCC1599 = assay type: functional, cell-based, Homo sapiens; conditions: Homo sapiens, HCC1599;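 further: growth inhibition of HCC1599 cells, read out in a cell viability assay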
Description: SANGER: Inhibition of human HCC1599 cell growth in a cell viability assay.

NCI-H187 = assay type: functional, cell-based, Homo sapiens; conditions: Homo sapiens, NCI-H187;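 further: growth inhibition of NCI-H187 cells, read out as cell viability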
Description: SANGER: Inhibition of human NCI-H187 cell growth in a cell viability assay.

HPAF-II = assay type: functional, cell-based; conditions: Homo sapiens;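 further: growth inhibition of HPAF-II cells, read out with a cell viability assay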
Description: SANGER: Inhibition of human HPAF-II cell growth in a cell viability assay.

SK-OV-3 = assay type: functional, cell-based; conditions: Homo sapiens;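 further: growth inhibition of SK-OV-3 human cells, read out with a cell viability assay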
Description: SANGER: Inhibition of human SK-OV-3 cell growth in a cell viability assay.

EFM-19 = assay type: functional, cell-based; conditions: Homo sapiens;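 further: growth inhibition of human EFM-19 cells, measured in a cell viability assay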
Description: SANGER: Inhibition of human EFM-19 cell growth in a cell viability assay.

NCI-H1793 = assay type: functional, cell-based; conditions: Homo sapiens;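 further: cell growth inhibition, read out by a cell viability assay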
Description: SANGER: Inhibition of human NCI-H1793 cell growth in a cell viability assay.

SK-MEL-30 = assay type: functional, cell-based; conditions: Homo sapiens;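 further: growth inhibition of SK-MEL-30 cells, determined with a cell viability assay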
Description: SANGER: Inhibition of human SK-MEL-30 cell growth in a cell viability assay.

KYSE-180 = assay type: functional, cell-based; conditions: Homo sapiens;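 further: growth inhibition of KYSE-180 cells, read out with a cell viability assay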
Description: SANGER: Inhibition of human KYSE-180 cell growth in a cell viability assay.

KYSE-270 = assay type: functional, cell-based; conditions: Homo sapiens;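 further: cell growth inhibition measured with a viability assay in the human KYSE-270 line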
Description: SANGER: Inhibition of human KYSE-270 cell growth in a cell viability assay.

UMC-11 = assay type: functional, cell-based; conditions: Homo sapiens;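 further: growth inhibition of UMC-11 cells, read out with a cell viability assay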
Description: SANGER: Inhibition of human UMC-11 cell growth in a cell viability assay.

CAL-33 = assay type: functional, cell-based; conditions: Homo sapiens;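 further: growth inhibition of CAL-33 cells, read out with a cell viability assay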
Description: SANGER: Inhibition of human CAL-33 cell growth in a cell viability assay.

SW626 = assay type: functional, cell-based; conditions: Homo sapiens;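 further: growth inhibition of SW626 cells, measured with a cell viability assay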
Description: SANGER: Inhibition of human SW626 cell growth in a cell viability assay.

HTC-C3 = assay type: functional, cell-based; conditions: Homo sapiens;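 further: inhibition of cell growth, read out with a cell viability assay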
Description: SANGER: Inhibition of human HTC-C3 cell growth in a cell viability assay.

EC-GI-10 = assay type: functional, cell-based, Homo sapiens; conditions: Homo sapiens, EC-GI-10
Description: SANGER: Inhibition of human EC-GI-10 cell growth in a cell viability assay.

FTC-133 = assay type: functional, cell-based; conditions: Homo sapiens
SK-MEL-28 = assay type: functional, cell-based; conditions: Homo sapiens;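 further: growth inhibition of human SK-MEL-28 cells, read out with a cell viability assay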
Description: SANGER: Inhibition of human SK-MEL-28 cell growth in a cell viability assay.

KU-19-19 = assay type: functional, cell-based; conditions: Homo sapiens
Description: SANGER: Inhibition of human KU-19-19 cell growth in a cell viability assay.

BCPAP = assay type: functional, cell-based; conditions: Homo sapiens;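 further: growth inhibition of BCPAP cells, read out in a cell viability assay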
Description: SANGER: Inhibition of human BCPAP cell growth in a cell viability assay.

BHT-101 = assay type: functional, cell-based; conditions: Homo sapiens
Description: SANGER: Inhibition of human BHT-101 cell growth in a cell viability assay.

NCI-H727 = assay type: functional, cell-based; conditions: Homo sapiens;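 further: growth inhibition of human NCI-H727 cells, read out with a cell viability assay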
Description: SANGER: Inhibition of human NCI-H727 cell growth in a cell viability assay.

MDA-MB-175-VII = assay type: functional, cell-based; conditions: Homo sapiens
DMS-273 = assay type: functional, cell-based; conditions: Homo sapiens
Description: SANGER: Inhibition of human DMS-273 cell growth in a cell viability assay.

NCI-H510A = assay type: functional, cell-based, Homo sapiens; conditions: Homo sapiens, NCI-H510A;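 further: growth inhibition of NCI-H510A cells, read out with a cell viability assay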
Description: SANGER: Inhibition of human NCI-H510A cell growth in a cell viability assay.

SK-LU-1 = assay type: functional, cell-based; conditions: Homo sapiens;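 further: cell viability assay measuring growth inhibition of human SK-LU-1 cells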
Description: SANGER: Inhibition of human SK-LU-1 cell growth in a cell viability assay.

AU565 = assay type: functional, cell-based; conditions: Homo sapiens;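 further: cell viability assay measuring growth inhibition of human AU565 cells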
Description: SANGER: Inhibition of human AU565 cell growth in a cell viability assay.

HO-1-N-1 = assay type: functional, cell-based; conditions: Homo sapiens;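 further: growth inhibition of human HO-1-N-1 cells, read out with a cell viability assay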
Description: SANGER: Inhibition of human HO-1-N-1 cell growth in a cell viability assay.

LK-2 = assay type: functional, cell-based; conditions: Homo sapiens;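 further: growth inhibition of LK-2 cells, read out with a viability assay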
Description: SANGER: Inhibition of human LK-2 cell growth in a cell viability assay.

HC-1 = assay type: functional, cell-based, Homo sapiens; conditions: Homo sapiens, HC-1;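 further: growth inhibition of HC-1 cells measured by a cell viability assay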
Description: SANGER: Inhibition of human HC-1 cell growth in a cell viability assay.

RVH-421 = assay type: functional, cell-based; conditions: Homo sapiens
Description: SANGER: Inhibition of human RVH-421 cell growth in a cell viability assay.

KYSE-510 = assay type: functional, cell-based; conditions: Homo sapiens;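 further: cell viability readout used to measure how strongly growth of the cell line is suppressed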
Description: SANGER: Inhibition of human KYSE-510 cell growth in a cell viability assay.

PC-14 = assay type: functional, cell-based; conditions: Homo sapiens;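 further: cell viability assay measuring inhibition of PC-14 cell growth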
Description: SANGER: Inhibition of human PC-14 cell growth in a cell viability assay.

NCI-H2196 = assay type: functional, cell-based, Homo sapiens; conditions: Homo sapiens, NCI-H2196; read-out: IC50;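 further: cell viability assay used as the readout of growth inhibition in NCI-H2196 cells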
Description: SANGER: Inhibition of human NCI-H2196 cell growth in a cell viability assay.

CAL-148 = assay type: functional, cell-based, Homo sapiens; conditions: Homo sapiens, CAL-148
Description: SANGER: Inhibition of human CAL-148 cell growth in a cell viability assay.

MDA-MB-415 = assay type: functional, cell-based; conditions: Homo sapiens
J82 = assay type: functional, cell-based; conditions: Homo sapiens;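 further: growth inhibition of J82 cells, read out with a cell viability assay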
Description: SANGER: Inhibition of human J82 cell growth in a cell viability assay.

NCI-H716 = assay type: functional, cell-based, Homo sapiens; conditions: Homo sapiens, NCI-H716;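 further: growth inhibition of human NCI-H716 cells, measured by a cell viability assay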
Description: SANGER: Inhibition of human NCI-H716 cell growth in a cell viability assay.

RL95-2 = assay type: functional, cell-based, Homo sapiens; conditions: Homo sapiens, RL95-2;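 further: RL95-2 growth inhibition determined through a cell viability readout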
Description: SANGER: Inhibition of human RL95-2 cell growth in a cell viability assay.

SNU-16 = assay type: functional, cell-based, Homo sapiens; conditions: Homo sapiens, SNU-16;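 further: growth inhibition of human SNU-16 cells, determined with a cell viability readout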
Description: SANGER: Inhibition of human NCI-SNU-16 cell growth in a cell viability assay.

HOS = assay type: functional, cell-based; conditions: Homo sapiens;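 further: growth inhibition of human HOS cells, read out with a cell viability assay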
Description: SANGER: Inhibition of human HOS cell growth in a cell viability assay.

HCC 2998 = assay type: functional, cell-based; conditions: Homo sapiens;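 further: growth inhibition of human HCC2998 cells, measured with a cell viability read-out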
Description: SANGER: Inhibition of human HCC2998 cell growth in a cell viability assay.

KMOE-2 = assay type: functional, cell-based, Homo sapiens; conditions: Homo sapiens, KMOE-2;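 further: growth inhibition of human KMOE-2 cells, read out with a cell viability assay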
Description: SANGER: Inhibition of human KMOE-2 cell growth in a cell viability assay.

HGC-27 = assay type: functional, cell-based; conditions: Homo sapiens;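 further: growth inhibition of human HGC-27 cells, read out in a cell viability assay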
Description: SANGER: Inhibition of human HGC-27 cell growth in a cell viability assay.

NUGC-3 = assay type: functional, cell-based; conditions: Homo sapiens;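 further: growth inhibition of human NUGC-3 cells, read out with a cell viability assay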
Description: SANGER: Inhibition of human NUGC-3 cell growth in a cell viability assay.

OVCAR-8 = assay type: functional, cell-based; conditions: Homo sapiens;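 further: growth inhibition of human OVCAR-8 cells, read out by a cell viability assay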
Description: SANGER: Inhibition of human OVCAR-8 cell growth in a cell viability assay.

HuP-T4 = assay type: functional, cell-based; conditions: Homo sapiens;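 further: cell viability assay measuring how much HuP-T4 cell growth is inhibited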
Description: SANGER: Inhibition of human HuP-T4 cell growth in a cell viability assay.

KYSE-140 = assay type: functional, cell-based; conditions: Homo sapiens;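 further: cell viability assay measuring growth inhibition in human KYSE-140 cells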
Description: SANGER: Inhibition of human KYSE-140 cell growth in a cell viability assay.

NCI-H524 = assay type: functional, cell-based, Homo sapiens; conditions: Homo sapiens, NCI-H524;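 further: growth inhibition of human NCI-H524 cells, read out through a cell viability assay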
Description: SANGER: Inhibition of human NCI-H524 cell growth in a cell viability assay.

DU-145 = assay type: functional, cell-based; conditions: Homo sapiens
Description: SANGER: Inhibition of human DU-145 cell growth in a cell viability assay.

KOSC-2 = assay type: functional, cell-based; conditions: Homo sapiens;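 further: growth inhibition of KOSC-2 cells, read out by a cell viability assay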
Description: SANGER: Inhibition of human KOSC-2 cell growth in a cell viability assay.

OE33 = assay type: functional, cell-based; conditions: Homo sapiens;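 further: growth inhibition of human OE33 cells, measured by a cell viability assay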
Description: SANGER: Inhibition of human OE33 cell growth in a cell viability assay.

NCI-H1694 = assay type: functional, cell-based, Homo sapiens; conditions: Homo sapiens, NCI-H1694;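 further: cell viability assay measuring inhibition of growth in human NCI-H1694 cells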
Description: SANGER: Inhibition of human NCI-H1694 cell growth in a cell viability assay.

NCI-H2081 = assay type: functional, cell-based, Homo sapiens; conditions: Homo sapiens, NCI-H2081;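 further: growth inhibition of human NCI-H2081 cells, read out with a cell viability assay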
Description: SANGER: Inhibition of human NCI-H2081 cell growth in a cell viability assay.

Measured: IC50

O=S(=O)(O)c1ccc2cc(/N=N/c3cc(S(=O)(=O)O)c4cccnc4c3O)ccc2c1
> 16 µM: all assays above
